Test results taken from patent US10702527B2, “Combination therapy of transcription inhibitors and kinase inhibitors” (Dana-Farber Cancer Institute, Inc., priority 2015, dated 2020).
Entries after “also recorded” stand apart in the source; their conditions may differ.

Tests used:
HER-2 dependent models = details: cited from earlier work
[1] = tested on: PC9 cells (EGFR-dependent NSCLC); test: Colony formation assay in PC9 cells; format: cell-based; details: 4 weeks, compared to THZ1 (FIG. 55B)
[2] = tested on: RT112 bladder carcinoma cells (FGFR3-dependent); test: Colony formation assay in RT112 cells; format: cell-based, human
Description: Media (and drug) were replaced weekly.

[3] = tested on: gene expression in PC9 cells; test: RNA-Seq gene expression in PC9 cells
Method: RNA was isolated from untreated RT112 cells and RT112 cells treated with 1 μM BGJ398, 100 nM THZ1, or combination treatment with THZ1 plus BGJ398, and similarly, untreated PC9 cells and PC9 cells treated with 1 μM erlotinib, 100 nM THZ1, or THZ1 plus erlotinib. Both cell lines were harvested at two time-points: following one day or seven days of treatment. Cell number was determined and total RNA was isolated using the RNeasy micro kit (Qiagen). Ambion® ERCC RNA Spike-In Mix (Life technology) was added to total RNA. cDNA libraries were prepared using the NEBNext® Ultra™ RNA Library Prep Kit for Illumina (New England Biolabs) according to the manufacturer's instructions. Library integrity was assessed on an Agilent 2100 Bioanalyzer (Agilent). Sequencing was performed on the Hiseq 2000 platform (Illumina) to a minimum depth of 30 million reads per sample.
QC-passed reads were aligned to the human reference genome (hg19) using PRADA.^46 Transcript per million (TPM) values were determined using RSEM.^47 TPM values were normalized with the voom transformation.^48 Expression changes for each gene in treated cells compared to untreated controls was determined using the limma package^49 as log 2-transformed fold change and a multiple-testing adjusted p-value. Heatmap visualization was performed using R. Log 2-transformed fold changes were not scaled and were colored on a blue-red scale.
Differentially expressed genes (defined as log 2-fold change value greater than 1.5 or less than −1.5, and p-value less than 0.01) were input into Ingenuity Pathway Analysis (www.ingenuity.com), to identify a) enriched pathways, 2) upstream regulators, andd 3) downstream effectors. […] We considered an activation z-score of greater than [2] to be activated, and less than [−2] to be inhibited. Gene ontology term (GO-term) enrichment analysis was performed using the Database for Annotation, Visualization and Integrated Discovery (DAVID) v6.7 (david.abcc.ncifcrf.gov/).

[4] = tested on: signaling pathways in PC9 cells; test: Western blot / immunoblot of signaling pathways in PC9 cells; format: cell-based; details: 24 hours, erlotinib 1 μM, THZ1 100 nM, alone or combined
Method: Cells were lysed in RIPA buffer (Roche) containing protease inhibitors (Roche) and Phosphatase Inhibitor Cocktails I and II (CalBioChem). Protein concentrations were determined using a Bradford assay (Bio-Rad). Proteins were separated by SDS gel electrophoresis using NuPAGE 4-12% Bis-Tris gels (Life Technologies) in MOPS buffer. Resolved protein was transferred to nitrocellulose membranes, blocked in 10% milk and probed with primary antibodies recognizing EGFR (2232S), p-EGFR (2234S), FGFR3 (4574S), p-FGFR (3471S), HER2/ERBB2 (2165), p-ERBB2 (2243S), STAT1 (9172), p-STAT1 (9167), STAT3 (4904S), p-STAT3 (9145S), AKT (9272S), p-AKT (4060P), ERK (4695S), p-ERK (4370S), FRA1 (5281S), CDK12 (11973) (all from Cell Signaling Technology), CDK7 (sc-723, Santa Cruz), actin (A5441, Sigma-Aldrich) and vinculin (V9131, Sigma-Aldrich) in 5% milk or 3% bovine serum albumin as recommended by the manufacturer. After incubation with the appropriate secondary antibody (Pierce anti-mouse IgG/IgM (31444, Thermo Scientific) and anti-rabbit IgG (31460, Thermo Scientific)), blots were imaged on film.
Western blots were used to characterize the signaling pathways in selected cell lines. The assays were performed at 24 hours under the following conditions: untreated, treated with 1 μM erlotinib, treated with 100 nM THZ1, or treated with a combination of erlotinib and THZ1, in PC9 and RT112 cells. These doses were also used in the colony formation assays and the RNAseq and ChIPseq experiments. […] However, it could be blocking the activation of downstream STAT3 targets. […] FGFR is known to be a bypass mechanism in PC9, but this was not seen with THZ1 treatment or with the combination treatment. […] This is unexpected, given that THZ1 should block CDK7-mediated RNAPII phosphorylation. This may be due to the dose or the time point assayed.

[5] = tested on: H3K27Ac enhancer signal in PC9 cells; test: H3K27Ac ChIP-Seq in PC9 cells; format: cell-based, human; details: seven days of treatment, vs DMSO
Method: RT112 and PC9 cells treated for seven days with vehicle, 1 μM BGJ398 and erlotinib (respectively), 100 nM THZ1, or BGJ398/erlotinib in combination with THZ1. H3K27Ac ChIP-Seq was performed using Abcam antibody (cat # AB4729, lot # GR183922-1) as previously described,^8 with minor modifications (cells were crosslinked for 20 min, Dynal magnetic beads (Sigma) were bound with 10 μg of the indicated antibody).
All ChIP-Seq data sets were aligned using bowtie 1.0.1 to build NCBI36/hg19 of the human genome with -p 4—best -k 2 -m 2—sam -1 40. Wiggle files for gene tracks were created using Macs 1.4.2 with options -w -S -space=50 to count reads in 50 bp bins.
Regions enriched in H3K27Ac were identified using SICER^51 with corresponding input DNA control, and parameters -t 1 (max 1 read per position), -w 200 (window size 200), -i 150 (fragment size), -g 200 (gap size 200; 1 window), -t 0.74 (interrogable genome fraction), -e 200 (e-value), -p 1e-9 (significance p value cutoff). […]
Density of H3K27Ac ChIP-Seq signal (FIG. 51F) was calculated using bamToGFF (github.com/BradnerLab/pipeline). Islands of H3K27Ac identified in RT112 BGJ398-treated cells or PC9 erlotinib-treated cells were treated as one bin (-m 1), reads were extended to be 200 bp (default) and the reads-per-million (-r) normalized density (-d) of reads was calculated therein.

PC9 cells = test: Apoptosis/cell death analysis (Annexin V/PI flow cytometry) in PC9 cells; format: cell-based; details: 48 hours; erlotinib 1 μM; compared to PC9 cells with control RNA guide
Method: 100,000 cells were seeded in 6-well plates, allowed to adhere overnight, and then incubated with media containing vehicle or drug as indicated for 24 or 48 hours. Cell death was quantified using the Alexa Fluor 488 Annexin V/Dead Cell Apoptosis kit for flow cytometry (Invitrogen), according to the manufacturer's protocol. All conditions were assayed in triplicate. Data were acquired using a BD LSRFortessa X-20 (BD Biosciences), and analyzed in FlowJo.

IL-6 = IL-6 in PC9 cell culture supernatants (Luminex cytokine assay, ELISA); format: cell-based; details: PC9 cells; erlotinib 1 μM, THZ1 100 nM; 24 and 72 hours
Method: A Luminex Multiplex Custom Cytokine assay was used to assay cytokines in RT112 and PC9 cell culture supernatants treated with vehicle, 1 μM BGJ398 or erlotinib respectively, 100 nM THZ1, or THZ1 in combination with BGJ398 or erlotinib, at 24 and 72 hours. Cytokines assayed for were: CCL2/MCP-1, CCL5/RANTES, CXLC5, IL-1 alpha and beta, IL-2, IL-4, IL-5, IL-6, IL-8, IL-10, IL-17a, GM-CSF, TNF-alpha, VEGF, INF-gamma. IL-6 was also assayed in cell culture supernatants using the Quantikine IL-6 ELISA kit (D6050, R&D Systems) as per the manufacturer's protocol.

SMILES	sensitivity to lapatinib (HER-2 dependent models)	enhancement of sensitivity to erlotinib (colony formation) [1]	enhancement of sensitivity to BGJ398 (colony formation) ([2]; 4 weeks, compared to THZ1 (FIG. 55D))	colony formation, transcription inhibitor alone or in combination with BGJ398 ([2]; one week, 24-well plate (FIG. 35))	gene expression (transcriptional programs) by RNAseq ([3]; erlotinib 1 μM, THZ1 100 nM, one or seven days)	gene expression of the top 200 up-regulated genes with erlotinib treatment ([3]; log2-normalized FPKM, two-tailed t-test)	FGFR activation [4]	p-STAT3 (STAT3 phosphorylation/activation) [4]	H3K27Ac ChIP-Seq signal at enhancers [5]	sensitivity to erlotinib (cell death) of CDK7 and CDK12-deficient PC9 cells (PC9 cells)	IL-6 levels in cell culture supernatants (IL-6)
Cc1sc2c(c1C)C(c1ccc(Cl)cc1)=N[C@@H](CC(=O)OC(C)(C)C)c1nnc(C)n1-2 [JQ1]	enhance sensitivity to lapatinib	did not enhance sensitivity to erlotinib	did enhance sensitivity to BGJ398 in RT112, although less so than THZ1	modest results, even in combination							
C#Cc1cccc(Nc2ncnc3cc(OCCOC)c(OCCOC)cc23)c1 [erlotinib]					transcriptionally distinct form the parental population; also recorded: up-regulated the expression of genes involved in pro-survival programs	significant increase in gene expression	is activated; also recorded: activation of FGFR was also observed	increases	significant increase in H3K27Ac signal	enhanced sensitivity to erlotinib	significantly increased
